{"source": "patent US12357549B2", "about": "“Method for dyeing keratinous material, comprising the use of an organosilicon compound, a dyeing compound, a sealing reagent, and a pre-treatment agent” (Henkel AG & Co. KGaA, priority 2021, dated 2025)", "origin": "cited, not measured here", "details": "25° C.", "data": [{"smiles": "CCN(Cc1cccc(S(=O)(=O)[O-])c1)c1ccc(C(=C2C=CC(=[N+](CC)Cc3cccc(S(=O)(=O)[O-])c3)C=C2)c2ccccc2S(=O)(=O)[O-])cc1.[Na+].[Na+]", "note": "[Acid Blue 9]", "values": [{"measurement": "water solubility", "result": "more than 20 wt %"}]}, {"smiles": "O=S(=O)([O-])c1ccc(N=Nc2c(O)ccc3ccccc23)cc1.[Na+]", "note": "[Acid Orange 7, sodium salt of 4-[(2-hydroxy-1-naphthyl)azo]benzenesulfonate]", "values": [{"measurement": "solubility in water", "result": "more than 7 g/L"}]}, {"smiles": "Nc1cc(S(=O)(=O)[O-])cc2cc(S(=O)(=O)[O-])c(N=Nc3ccccc3)c(O)c12.[Na+].[Na+]", "note": "[Acid Red 33, disodium salt of 5-amino-4-hydroxy-3-(phenylazo)-naphthalene-2,7-disulfonate]", "values": [{"measurement": "solubility in water", "result": 2500, "unit": "µg/mL"}]}, {"smiles": "O=C([O-])c1c(Cl)c(Cl)c(Cl)c(Cl)c1-c1c2c(Br)cc(=O)c(Br)c-2oc2c(Br)c(O)cc(Br)c12.O=C([O-])c1c(Cl)c(Cl)c(Cl)c(Cl)c1-c1c2c(Br)cc(=O)c(Br)c-2oc2c(Br)c(O)cc(Br)c12.[Na+].[Na+]", "note": "[Acid Red 92, disodium salt of 3,4,5,6-tetrachloro-2-(1,4,5,8-tetrabromo-6-hydroxy-3-oxoxanthen-9-yl)benzoic acid]", "values": [{"measurement": "solubility in water", "result": "greater than 10 g/L"}]}, {"smiles": "O=C([O-])C1=NN(c2ccc(S(=O)(=O)[O-])cc2)C(=O)C1N=Nc1ccc(S(=O)(=O)[O-])cc1.[Na+].[Na+].[Na+]", "note": "(centres unmarked) [Acid Yellow 23, trisodium salt of 4,5-dihydro-5-oxo-1-(4-sulfophenyl)-4-((4-sulfophenyl)azo)-1H-pyrazole-3-carboxylic acid]", "values": [{"measurement": "solubility in water (in words)", "result": "readily soluble in water"}]}]}
